# Biological target: T1, human KSP motor domain (KSP(367H)) (Homo sapiens, UniProt P52732)
# T1 construct: were used to amplify the motor domain and the neck linker region; made in house; host or cells: E. coli BL21 (DE3), pRSETa vector
# T1 sequence (P52732 18-359 limits assumed): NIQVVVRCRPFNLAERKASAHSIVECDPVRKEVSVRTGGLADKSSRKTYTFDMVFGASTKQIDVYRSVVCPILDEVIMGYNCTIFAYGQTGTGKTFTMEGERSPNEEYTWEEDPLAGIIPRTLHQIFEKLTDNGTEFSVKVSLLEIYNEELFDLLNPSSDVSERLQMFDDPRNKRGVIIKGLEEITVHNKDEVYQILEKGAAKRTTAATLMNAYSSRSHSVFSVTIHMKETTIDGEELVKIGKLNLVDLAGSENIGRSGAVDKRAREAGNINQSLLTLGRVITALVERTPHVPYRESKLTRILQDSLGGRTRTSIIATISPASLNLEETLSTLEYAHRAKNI
# Assay: Kinesin ATPase In Vitro Assay
# Format: biochemical
# Conditions: kinesin motor domain with microtubules, 1 mM ATP, 23° C.; free phosphate by quinaldine red/ammonium molybdate, absorbance 540 nm
# Description: I. Kinesin ATPase In Vitro Assay
# Cloning and Expression of Human Poly-Histidine Tagged KSP Motor Domain (KSP(367H))
# Plasmids for the expression of the human KSP motor domain construct were cloned by PCR using a pBluescript full length human KSP construct (Blangy et al., Cell, vol.83, pp 1159–1169, 1995) as a template. The N-terminal primer 5′-[…] (SEQ.ID.NO.: 1) and the C-terminal primer 5′-[…] […] (SEQ.ID.NO.: 2) were used to amplify the motor domain and the neck linker region. The PCR products were digested with AseI and XhoI, ligated into the NdeI/XhoI digestion product of pRSETa (Invitrogen) and transformed into E. coli BL21 (DE3).
# Cells were grown at 37° C. to an OD600 of 0.5. […]
# The kinesin motor domain is incubated with microtubules, 1 mM ATP (1:1 MgCl2: Na-ATP), and compound at 23° C. in buffer containing 80 mM K-HEPES (pH 7.0), 1 mM EGTA, 1 mM DTT, 1 mM MgCl2, and 50 mM KCl. […] Free phosphate from the ATP hydrolysis reaction is measured via a quinaldine red/ammonium molybdate assay by adding 150 μl of quench C buffer containing a 2:1 ratio of quench A:quench B. Quench A contains 0.1 mg/ml quinaldine red and 0.14% polyvinyl alcohol; quench B contains 12.3 mM ammonium molybdate tetrahydrate in 1.15 M sulfuric acid. The reaction is incubated for 10 minutes at 23° C., and the absorbance of the phospho-molybdate complex is measured at 540 nm.
structure (smiles),measurement,value
"CCC(c1nc2c(c(=O)n1Cc1ccccc1)CCC2)N(CCN(C)C)C(=O)c1ccc(Br)cc1 (stereo not shown) [1-5, N-[1-(3-benzyl-4-oxo-4,5,6,7-tetrahydro-3H-cyclopenta[d]pyriinidin-2-yl)propyl]-4-bromo-N-[2-(dimethylamino)ethyl]benzamide]",IC50,≤ 50 µM
